In ChEMBL document CHEMBL1140180, “Antiproliferative triterpenes from Melaleuca ericifolia” (J Nat Prod, 2008):

Assay: Antiproliferative activity against mouse +SA mammary epithelial cells after 4 days by MTT assay
Format: functional, cell-based
Settings: Epithelial cell, 96 h

Compared with `C=C(C)[C@@H]1CC[C@]2(O)CC[C@]3(C)[C@H](CC[C@@H]4[C@@]5(C)CC[C@H](O)C(C)(C)[C@@H]5CC[C@]43C)[C@@H]12`, `C=C(C)[C@@H]1CC[C@@]2(OO)CC[C@]3(C)[C@H](CC[C@@H]4[C@@]5(C)CC[C@H](O)C(C)(C)[C@@H]5CC[C@]43C)[C@@H]12` is higher in IC50: 18.7 µM for the first, greater than 20 µM for the second.

`C[C@H]1CO[C@]23CC[C@@H]1[C@@H]2[C@H]1CC[C@@H]2[C@@]4(C)CC[C@H](O)C(C)(C)[C@@H]4CC[C@@]2(C)[C@]1(C)CC3` and `C=C(C)[C@@H]1CC[C@]2(C=O)CC[C@]3(C)[C@H](CC[C@@H]4[C@@]5(C)CC[C@H](O)C(C)(C)[C@@H]5CC[C@]43C)[C@@H]12` [BETULINALDEHYDE] are within 1.5-fold of each other in IC50: 18.1 µM for the first, 19.4 µM for the second.

`CC(=O)[C@@H]1CC[C@]2(C(=O)O)CC[C@]3(C)[C@H](CC[C@@H]4[C@@]5(C)CC[C@H](O)C(C)(C)[C@@H]5CC[C@]43C)[C@@H]12` [PLATANIC ACID] and `C=C(C)[C@@H]1CC[C@]2(C(=O)O)CC[C@]3(C)[C@H](CC[C@@H]4[C@@]5(C)CC[C@H](O)C(C)(C)[C@@H]5CC[C@]43C)[C@@H]12` [BETULINIC ACID] cannot be ordered by IC50: greater than 20 µM for the first, greater than 20 µM for the second.

Compared with `C=C(C)[C@@H]1CC[C@]2(OO)CC[C@]3(C)[C@H](CC[C@@H]4[C@@]5(C)CC[C@H](O)C(C)(C)[C@@H]5CC[C@]43C)[C@@H]12`, `C=C(C)[C@@H]1CC[C@]2(CO)CC[C@]3(C)[C@H](CC[C@@H]4[C@@]5(C)CC[C@H](O)C(C)(C)[C@@H]5CC[C@]43C)[C@@H]12` [BETULIN] is higher in IC50: 15.5 µM for the first, greater than 20 µM for the second.

`C[C@H]1[C@H](C)CC[C@]2(C(=O)O)CC[C@]3(C)C(=CC[C@@H]4[C@@]5(C)CC[C@H](O)C(C)(C)[C@@H]5CC[C@]43C)[C@H]12` [URSOLIC ACID] and `C[C@H]1[C@H](C)CC[C@]2(C(=O)O)CC[C@]3(C)C(=CC[C@@H]4[C@@]5(C)C[C@@H](O)[C@H](O)[C@@](C)(CO)[C@@H]5CC[C@]43C)[C@H]12` [ASIATIC ACID] cannot be ordered by IC50: greater than 20 µM for the first, greater than 20 µM for the second.
